Results from PubChem BioAssay (NCI).
Several values for one entry are separate records, joined by “and”; a condition that tells them apart may be missing. Identical values can stand only once.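 Five concentrations, 48 hours, 96-well plates. At the GI50, growth is halved. TGI denotes the concentration required for complete inhibition of growth.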

tested on: CCRF-CEM leukemia; test: DTP human tumour cell line panel, 48 h

Row | Compound | GI50 | TGI
1 | O=C1CCCN1c1ccccc1I(=O)=O | > 100 µM | > 100 µM
2 | O=C(O)c1cccc(COc2ccc([N+](=O)[O-])cc2Cl)c1 | > 100 µM | > 100 µM
3 | COC(=O)C1=COC(C)C2CN3CCc4c([nH]c5ccccc45)C3CC12 (centres undefined) | 20.1 µM and 50.5 µM | 58.5 µM and > 100 µM
4 | CCC(C)(O)c1cnc(CC(C)C)c(=O)n1O (centres undefined) |  | 54.1 µM
5 | Nc1cc2c(cc1Br)[nH]c(=O)c1ccccc12 | 6.82 µM | 59.5 µM
6 | COc1cc2c(/C=N\N=C(N)N)c[nH]c2cc1C | 14.6 µM | 27.7 µM
7 | COc1ccc(-c2nc(-c3cc(OC)cc(OC)c3)[nH]c2-c2ccc(OC)cc2)cc1 | 3.93 µM | > 100 µM
8 | CC(C)CC(C/C=C1/CC(CO)(COC(=O)C(C)(C)C)OC1=O)CC(C)C (centres undefined) |  | 18.4 µM
9 | COc1ccc(-c2nn(-c3cccc(Cl)c3)cc2-c2cc(-c3ccccc3)[nH]c(=O)c2C#N)cc1 | 8.38 µM | 19.3 µM
10 | CCCC(=O)C1=C(O)C(Cc2c(O)c(C)c(O)c(C(=O)CCC)c2O)=C(O)C(C)(C)C1=O |  | 20 µM
11 | c1coc(-c2c3ccc(=[N+]4CCCCC4)cc-3oc3cc(N4CCCCC4)ccc23)c1 | 0.0306 µM | 1.11 µM
12 | CCC/C=C/C=C/C1CC(O)C(O)C(=O)C1CO (centres undefined) |  | > 100 µM

tested on: HCT-116 colon; test: DTP human tumour cell line panel, 48 h

Row | Compound | GI50 | TGI
13 | O=C(O)c1cccc(COc2ccc([N+](=O)[O-])cc2Cl)c1 | > 100 µM | > 100 µM
14 | COC(=O)C1=COC(C)C2CN3CCc4c([nH]c5ccccc45)C3CC12 (centres undefined) | 19 µM and > 100 µM | 45.4 µM and > 100 µM
15 | CCC(C)(O)c1cnc(CC(C)C)c(=O)n1O (centres undefined) |  | > 100 µM
16 | Nc1cc2c(cc1Br)[nH]c(=O)c1ccccc12 | 2.91 µM | 25.5 µM
17 | COc1cc2c(/C=N\N=C(N)N)c[nH]c2cc1C | 14.6 µM | 27.7 µM
18 | COc1ccc(-c2nc(-c3cc(OC)cc(OC)c3)[nH]c2-c2ccc(OC)cc2)cc1 | 8.06 µM | > 100 µM
19 | CN(C)CCNCCN |  | > 100 µM
20 | CC(C)CC(C/C=C1/CC(CO)(COC(=O)C(C)(C)C)OC1=O)CC(C)C (centres undefined) |  | 29.5 µM and 30.9 µM
21 | COc1cc(/C=C\c2cc(OC)c(OC)c(OC)c2)cc(N/C=C\C(=O)c2c[nH]c3ccccc23)c1OC | 1.76 µM | 3.49 µM
22 | CCCC/C(=C\C1=C(C)C(=O)C(OC)=C(OC)C1=O)C(=O)O | > 100 µM | > 100 µM
23 | COc1ccc(-c2nn(-c3cccc(Cl)c3)cc2-c2cc(-c3ccccc3)[nH]c(=O)c2C#N)cc1 | 1.71 µM | 32.8 µM
24 | CC1CC(O)C(=O)C(O[C@@H]2C[C@@H]3CC[C@@H]4[C@H](CC[C@]5(C)C(C6=CC(=O)OC6)CC[C@]45O)[C@@]3(C=O)C[C@H]2O)O1 (some centres undefined) |  | 0.0511 µM
25 | CCCC(=O)C1=C(O)C(Cc2c(O)c(C)c(O)c(C(=O)CCC)c2O)=C(O)C(C)(C)C1=O |  | > 50 µM
26 | CCC/C=C/C=C/C1CC(O)C(O)C(=O)C1CO (centres undefined) |  | > 100 µM

tested on: LOX IMVI melanoma; test: DTP human tumour cell line panel, 48 h

Row | Compound | GI50 | TGI
27 | O=C1CCCN1c1ccccc1I(=O)=O | > 100 µM | > 100 µM
28 | O=C(O)c1cccc(COc2ccc([N+](=O)[O-])cc2Cl)c1 | 94 µM | > 100 µM
29 | COC(=O)C1=COC(C)C2CN3CCc4c([nH]c5ccccc45)C3CC12 (centres undefined) | 18.5 µM and > 100 µM | 45.5 µM and > 100 µM
30 | CCC(C)(O)c1cnc(CC(C)C)c(=O)n1O (centres undefined) |  | > 100 µM
31 | Nc1cc2c(cc1Br)[nH]c(=O)c1ccccc12 | 1.8 µM | 6.23 µM
32 | COc1cc2c(/C=N\N=C(N)N)c[nH]c2cc1C | 31.8 µM | > 100 µM
33 | Cn1cc(-c2csc(-c3cn(CCCCN4CCCCC4)c4ccccc34)n2)c2cccnc21 | 1.71 µM | 3.21 µM
34 | CN(C)CCNCCN |  | > 100 µM
35 | CC(C)CC(C/C=C1/CC(CO)(COC(=O)C(C)(C)C)OC1=O)CC(C)C (centres undefined) | 12.3 µM and 1.76 µM | 27.9 µM and 21.9 µM
36 | CCCC/C(=C\C1=C(C)C(=O)C(OC)=C(OC)C1=O)C(=O)O | > 100 µM | > 100 µM
37 | COc1ccc(-c2nn(-c3cccc(Cl)c3)cc2-c2cc(-c3ccccc3)[nH]c(=O)c2C#N)cc1 | 8.97 µM | > 50 µM
38 | CC1CC(O)C(=O)C(O[C@@H]2C[C@@H]3CC[C@@H]4[C@H](CC[C@]5(C)C(C6=CC(=O)OC6)CC[C@]45O)[C@@]3(C=O)C[C@H]2O)O1 (some centres undefined) |  | 0.0681 µM
39 | CCCC(=O)C1=C(O)C(Cc2c(O)c(C)c(O)c(C(=O)CCC)c2O)=C(O)C(C)(C)C1=O |  | > 50 µM
40 | CCC/C=C/C=C/C1CC(O)C(O)C(=O)C1CO (centres undefined) |  | > 100 µM

tested on: MALME-3M melanoma; test: DTP human tumour cell line panel, 48 h

Row | Compound | GI50 | TGI
41 | O=C1CCCN1c1ccccc1I(=O)=O | > 100 µM | > 100 µM
42 | COC(=O)C1=COC(C)C2CN3CCc4c([nH]c5ccccc45)C3CC12 (centres undefined) | 14.4 µM and 49.5 µM | 45.5 µM and > 100 µM
43 | Nc1cc2c(cc1Br)[nH]c(=O)c1ccccc12 | 2.17 µM | 4.78 µM
44 | COc1ccc(-c2nc(-c3cc(OC)cc(OC)c3)[nH]c2-c2ccc(OC)cc2)cc1 | 8.31 µM | > 100 µM
45 | CN(C)CCNCCN |  | > 100 µM
46 | COc1cc(/C=C\c2cc(OC)c(OC)c(OC)c2)cc(N/C=C\C(=O)c2c[nH]c3ccccc23)c1OC | 1.27 µM | 3.18 µM
47 | CCCC/C(=C\C1=C(C)C(=O)C(OC)=C(OC)C1=O)C(=O)O | > 100 µM | > 100 µM
48 | COc1ccc(-c2nn(-c3cccc(Cl)c3)cc2-c2cc(-c3ccccc3)[nH]c(=O)c2C#N)cc1 | 13.7 µM | > 50 µM
49 | CC1CC(O)C(=O)C(O[C@@H]2C[C@@H]3CC[C@@H]4[C@H](CC[C@]5(C)C(C6=CC(=O)OC6)CC[C@]45O)[C@@]3(C=O)C[C@H]2O)O1 (some centres undefined) |  | 0.0708 µM
50 | c1coc(-c2c3ccc(=[N+]4CCCCC4)cc-3oc3cc(N4CCCCC4)ccc23)c1 | 0.0423 µM | 0.184 µM

tested on: MDA-MB-231 breast; test: DTP human tumour cell line panel, 48 h

Row | Compound | GI50 | TGI
51 | O=C1CCCN1c1ccccc1I(=O)=O | > 100 µM | > 100 µM
52 | O=C(O)c1cccc(COc2ccc([N+](=O)[O-])cc2Cl)c1 | > 100 µM | > 100 µM
53 | COC(=O)C1=COC(C)C2CN3CCc4c([nH]c5ccccc45)C3CC12 (centres undefined) | 21.2 µM and > 100 µM | 65.3 µM and > 100 µM
